Where two headings read alike, the source gives them in different places.
Tests used:
CYP6M2 [1] = conditions: read-out: IC50 CYP6M2, inhibition of diethoxyfluorescein metabolism, cited from earlier work
CYP6Z3 = target: T1, CYP6Z3 (Anopheles gambiae, UniProt Q86LT6, H411Y/S209G/W396L); experiment: Inhibition screening of pyrethroids, diethoxyfluorescein, CYP6Z3; assay type: biochemical
T1 sequence (Q86LT6 1-492 S209G/W396L/H411Y): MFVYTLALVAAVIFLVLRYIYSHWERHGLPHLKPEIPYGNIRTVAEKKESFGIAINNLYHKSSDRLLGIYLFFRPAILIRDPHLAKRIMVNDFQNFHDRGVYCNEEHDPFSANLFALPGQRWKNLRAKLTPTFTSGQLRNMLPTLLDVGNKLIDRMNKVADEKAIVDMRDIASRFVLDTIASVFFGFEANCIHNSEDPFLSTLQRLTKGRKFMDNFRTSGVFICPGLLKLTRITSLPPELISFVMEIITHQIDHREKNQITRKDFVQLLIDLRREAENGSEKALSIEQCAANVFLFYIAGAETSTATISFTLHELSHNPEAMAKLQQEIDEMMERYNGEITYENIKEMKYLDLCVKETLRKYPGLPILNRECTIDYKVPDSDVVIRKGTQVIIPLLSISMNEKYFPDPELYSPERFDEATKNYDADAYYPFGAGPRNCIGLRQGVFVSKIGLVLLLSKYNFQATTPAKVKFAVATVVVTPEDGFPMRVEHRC
T1 sequence (Q86QH5 1-679 partner): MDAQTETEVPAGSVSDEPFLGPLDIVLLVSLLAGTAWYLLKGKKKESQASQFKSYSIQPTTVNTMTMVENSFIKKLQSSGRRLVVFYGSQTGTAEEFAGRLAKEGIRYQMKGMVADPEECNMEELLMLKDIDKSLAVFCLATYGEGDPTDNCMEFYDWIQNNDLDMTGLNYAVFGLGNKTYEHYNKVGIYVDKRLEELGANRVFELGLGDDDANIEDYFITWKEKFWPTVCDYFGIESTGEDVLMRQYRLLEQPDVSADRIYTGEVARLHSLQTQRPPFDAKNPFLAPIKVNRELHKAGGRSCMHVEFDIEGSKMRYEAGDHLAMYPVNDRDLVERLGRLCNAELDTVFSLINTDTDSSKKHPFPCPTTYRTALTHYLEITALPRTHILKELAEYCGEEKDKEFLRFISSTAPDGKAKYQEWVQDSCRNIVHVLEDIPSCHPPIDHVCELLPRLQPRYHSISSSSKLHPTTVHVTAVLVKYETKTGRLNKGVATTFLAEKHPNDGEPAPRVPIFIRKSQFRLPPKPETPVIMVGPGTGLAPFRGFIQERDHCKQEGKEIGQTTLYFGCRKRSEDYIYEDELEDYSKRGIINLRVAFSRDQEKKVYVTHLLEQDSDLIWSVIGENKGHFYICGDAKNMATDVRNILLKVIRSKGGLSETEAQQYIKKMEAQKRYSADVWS
Description: Cytochrome P450 inhibition assays using fluorogenic probe substrates have become commonplace in drug discovery screening cascades and are a rapid method of screening for insecticide interactions with mosquito P450s to predict insecticide binding, metabolism, cross-resistance and synergism. In this study, the half maximal inhibitory concentration (IC50), which provides a value for inhibition of each P450 by each pyrethroid (also referred to as ‘binding affinity’), and the percentage depletion, which gives a value for metabolism of each pyrethroid by each P450 (also referred to as vulnerability to metabolic attack), were both included as parameters to establish a P450s structural activity relationship model. This model was used to understand both the chemistry of the pyrethroids and the interaction with mosquito P450s that function as monooxygenases in metabolic resistance, to predict cross-resistance liabilities in vivo. […] A low percentage depletion indicates low metabolism of the pyrethroid, which means that it may be less vulnerable to resistance mediated by P450s.
In addition, inhibition activity data for these pyrethroids exposed to CYP6Z3 from the An. gambiae Kisumu strain were also generated (Additional file 1).
1. Preparation of An. gambiae CYP6Z3 and cloning
Total RNA was extracted with Arcturus PicoPure Kit (Applied Biosystems, USA) from ten adult An. gambiae mosquitoes from the Kisumu strain [1]. Complementary DNA was prepared using Superscript III (Invitrogen) with an oligo (dT)20 primer and used as a template for amplifying full -length AgCyp6z3 with KOD DNA polymerase (Merk Chemicals) . The gene-specific primers used in these high -fidelity PCRs (Table S1) were designed according to the reference An. gambiae PEST CYP6Z3 genome sequence (Accession number AY193727) The PCR product was ligated into pGEM T-easy vector (Promega) and sequenced on both strands. Consistent with the high frequency of polymorphism in An. gambiae P450s [2](Martin Nature Ref) there were 36 single nucleotide polymorphism (SNPs) compared with the reference sequence, of which three produced amino acid changes, S209G, W396L, and H411Y. For expression, the ompA leader sequence (ompA) was engineered onto the amino - terminus of the AgCyp6z3 gene to direct the P450 into the E. coli […] during expression as previously described. The ompA-leader was fused to AgCyp6z3 cDNA in frame with AgCyp6z3 initiation codon by fusion PCR using High fidelity Phusion polymerase (Scientific). The ompA AgCyp6z3 fusion was flanked at the 5′ and 3′ ends with NdeI and EcoR1, respectively for ligation into NdeI/EcoRI linearised pB13 (pCWori+).
Table S1. Primers used for amplification of CYP6Z3 and in vitro functional characterisation […]
ompA+2 Forward […]
ompA+2 CYP6Z3 fusion […]
2. Preparation of membranes expressing P450 and AgCPR
To express functional P450, AgCyp6z3 cloned into pB13 plasmid was co-transformed into E. coli JM109 cells with An. gambiae NADPH-cytochrome P450 reductase (AgCPR-pACYC). The P450 and the AgCPR were previously fused with ompA and pelB leader sequences respectively to direct the expressed proteins to the inner bacterial periplasm in order to form functional monooxygenase complex. For P450 production, 200 mL E. coli cultures in Terrific Broth were incubated at 21°C with shaking at 120 RPM for 18–24 h after induction with 1 mM IPTG. Following expression, E. coli membranes containing CYP6Z3 were isolated and P450 and AgCPR content measured as previously described. Samples were stored in aliquots of 100 µL at −80°C. An. gambiae cytochrome b5 was prepared as described previously to supplement enzyme reactions at an 8:1 M ratio, b5: P450 [4].
3. Inhibition screening of pyrethroids.
Inhibition screening of pyrethroid inhibitors and IC50 calculations carried out according Yunta et al. […]

Anopheles sinensis = system: Anopheles sinensis; parameters: method as in PMID 24159535; conditions: resistance ratios using LC50 values from a susceptible strain; most susceptible to bifenthrin, cyfluthrin and etofenprox, in that order; ref [55]; cited from earlier work
CYP6M2 [2] = conditions: Incubation time 2h; mean ± SD; ref [38], [41]; cited from earlier work
CYP6P3 = conditions: Incubation time 2h; mean ± SD; ref [38], [41]; cited from earlier work
[3] = footnote a, ref Yunta et al. 2016[8]
[4] = footnote b, ref Yunta et al. 2019[10]

Structure (SMILES)	IC50 (CYP6M2 [1]; [3])	IC50 (CYP6Z3)	susceptibility of larvae, rank in words (Anopheles sinensis)	% Insecticide depletion CYP6M2 (CYP6M2 [2])	% Insecticide depletion CYP6P3 (CYP6P3)	IC50 (CYP6M2 [1]; [4])
CC1(C)[C@H](C(=O)O[C@H](C#N)c2cccc(Oc3ccccc3)c2)[C@@H]1C=C(Br)Br [Deltamethrin, deltamethrin]	4.2 µM	3.4 µM				
CC1(C)C(C=C(Cl)Cl)C1C(=O)OCc1cccc(Oc2ccccc2)c1 (stereo not drawn) [Permethrin, permethrin]	8.1 µM	3.7 µM	least susceptible	58.5 ± 2.2%	100.0 ± 0.0%	
CC1(C)[C@H](C(=O)O[C@H](C#N)c2cccc(Oc3ccccc3)c2)[C@@H]1/C=C(\Cl)C(F)(F)F (racemic) [λ-Cyhalothrin, λ-cyhalothrin]		3.3 µM		49.4 ± 0.5%	83.3 ± 15.4%	6.6 µM
Cc1c(COC(=O)[C@@H]2[C@H](/C=C(\Cl)C(F)(F)F)C2(C)C)cccc1-c1ccccc1 (racemic) [Bifenthrin, bifenthrin]		17 µM	most susceptible	38.9 ± 1.6%	76.7 ± 0.3%	5.6 µM
CCOc1ccc(C(C)(C)COCc2cccc(Oc3ccccc3)c2)cc1 [Etofenprox, etofenprox]		4.8 µM	most susceptible	68.8 ± 1.1%	99.8 ± 0.3%	12 µM
